Our source for the remaining binding values is article PMC4457528, “Identification of Novel Small Molecule Inhibitors of Oncogenic RET Kinase” (PLoS ONE, 2015).

Assay in all cases: KinomeScan kinase panel, single concentration 10 µM
Common to all, as to assay type: binding

In assay [1] the target is T1, KinomeScan kinase panel (Homo sapiens, UniProt P07333).
T1 construct: purchased DiscoveRx (KinomeScan)
The following applies: CSF1R, 10 µM; read-out: score (%).

Assay [2] deals with T2, KinomeScan kinase panel (Homo sapiens, UniProt P21709).
T2 construct: purchased DiscoveRx (KinomeScan)
T2 sequence (P21709 26-976): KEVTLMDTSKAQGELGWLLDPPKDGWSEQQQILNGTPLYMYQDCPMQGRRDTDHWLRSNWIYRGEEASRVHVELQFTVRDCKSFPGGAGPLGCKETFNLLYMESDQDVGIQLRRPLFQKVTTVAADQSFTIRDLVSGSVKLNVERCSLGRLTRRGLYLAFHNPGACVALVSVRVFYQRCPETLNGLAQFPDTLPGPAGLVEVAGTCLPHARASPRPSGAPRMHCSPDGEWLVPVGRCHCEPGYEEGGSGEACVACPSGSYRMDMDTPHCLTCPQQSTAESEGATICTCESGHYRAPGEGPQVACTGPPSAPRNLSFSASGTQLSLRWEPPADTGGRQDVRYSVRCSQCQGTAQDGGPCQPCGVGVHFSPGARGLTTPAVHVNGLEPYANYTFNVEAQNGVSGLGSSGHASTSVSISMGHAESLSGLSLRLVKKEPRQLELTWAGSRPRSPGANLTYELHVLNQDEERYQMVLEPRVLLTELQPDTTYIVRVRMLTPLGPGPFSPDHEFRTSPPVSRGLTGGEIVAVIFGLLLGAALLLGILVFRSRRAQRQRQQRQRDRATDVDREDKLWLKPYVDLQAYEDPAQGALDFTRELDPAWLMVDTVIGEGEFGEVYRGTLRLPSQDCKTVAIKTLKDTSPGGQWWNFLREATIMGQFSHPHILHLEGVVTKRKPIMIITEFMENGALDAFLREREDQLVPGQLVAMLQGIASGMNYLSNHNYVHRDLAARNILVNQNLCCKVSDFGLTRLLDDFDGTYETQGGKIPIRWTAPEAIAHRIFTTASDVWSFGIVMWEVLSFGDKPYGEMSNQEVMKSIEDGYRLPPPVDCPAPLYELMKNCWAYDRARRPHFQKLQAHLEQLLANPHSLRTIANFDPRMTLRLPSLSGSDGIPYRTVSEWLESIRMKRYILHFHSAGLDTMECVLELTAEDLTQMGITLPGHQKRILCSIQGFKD
To be noted: EPHA1, 10 µM; read-out: score (%).

The target in assay [3] is T3, KinomeScan kinase panel (Homo sapiens, UniProt Q16816).
T3 construct: purchased DiscoveRx (KinomeScan)
T3 sequence (Q16816 whole entry): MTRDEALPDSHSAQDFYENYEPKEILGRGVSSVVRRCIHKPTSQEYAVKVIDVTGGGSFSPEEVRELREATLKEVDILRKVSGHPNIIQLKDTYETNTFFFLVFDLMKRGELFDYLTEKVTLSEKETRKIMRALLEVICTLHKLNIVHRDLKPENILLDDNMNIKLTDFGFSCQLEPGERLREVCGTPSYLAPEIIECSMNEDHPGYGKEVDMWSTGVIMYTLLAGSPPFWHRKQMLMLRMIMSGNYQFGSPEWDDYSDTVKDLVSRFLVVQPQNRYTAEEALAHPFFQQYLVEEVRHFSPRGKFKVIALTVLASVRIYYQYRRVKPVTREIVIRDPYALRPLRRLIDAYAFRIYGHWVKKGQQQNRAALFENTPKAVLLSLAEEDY
The following applies: PHKG1, 10 µM; read-out: score (%).

Assay [4] has as its target T4, KinomeScan kinase panel (Homo sapiens, UniProt P33981).
T4 construct: purchased DiscoveRx (KinomeScan)
T4 sequence (P33981 1-857): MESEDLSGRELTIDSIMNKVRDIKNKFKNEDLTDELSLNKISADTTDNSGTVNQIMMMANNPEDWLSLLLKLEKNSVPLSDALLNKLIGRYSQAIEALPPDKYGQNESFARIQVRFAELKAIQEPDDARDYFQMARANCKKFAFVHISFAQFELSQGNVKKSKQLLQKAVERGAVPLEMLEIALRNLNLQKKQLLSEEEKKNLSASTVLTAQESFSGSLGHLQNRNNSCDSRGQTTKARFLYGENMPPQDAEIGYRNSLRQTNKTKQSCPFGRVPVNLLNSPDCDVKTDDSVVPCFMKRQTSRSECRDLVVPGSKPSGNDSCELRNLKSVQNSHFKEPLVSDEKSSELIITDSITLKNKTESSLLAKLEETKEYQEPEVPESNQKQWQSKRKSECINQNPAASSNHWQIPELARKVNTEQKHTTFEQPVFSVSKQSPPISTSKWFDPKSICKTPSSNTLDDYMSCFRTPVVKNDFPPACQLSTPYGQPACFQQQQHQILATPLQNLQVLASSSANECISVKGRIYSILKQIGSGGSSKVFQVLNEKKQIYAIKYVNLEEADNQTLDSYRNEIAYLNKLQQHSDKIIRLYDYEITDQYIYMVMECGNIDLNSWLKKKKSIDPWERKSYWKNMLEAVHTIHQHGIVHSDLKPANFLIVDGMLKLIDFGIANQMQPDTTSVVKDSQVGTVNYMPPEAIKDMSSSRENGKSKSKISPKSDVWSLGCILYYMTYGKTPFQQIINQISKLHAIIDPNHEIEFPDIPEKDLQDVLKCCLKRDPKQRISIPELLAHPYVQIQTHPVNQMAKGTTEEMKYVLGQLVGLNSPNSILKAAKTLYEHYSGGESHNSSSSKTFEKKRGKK
To be noted: kinase TTK; 10 µM; read-out: score (%).

The target of assay [5] is T5, KinomeScan kinase panel (Homo sapiens, UniProt P49841).
T5 construct: purchased DiscoveRx (KinomeScan)
To be noted: GSK3B, 10 µM; read-out: score (%).

The target in assay [6] is T6, KinomeScan kinase panel (Homo sapiens, UniProt Q9Y4K4).
T6 construct: purchased DiscoveRx (KinomeScan)
To be noted: MAP4K5, 10 µM; read-out: score (%).

Assay [7] deals with T7, KinomeScan kinase panel (Homo sapiens, UniProt P16591).
T7 construct: purchased DiscoveRx (KinomeScan)
To be noted: FER, 10 µM; read-out: score (%).

Assay [8] has as its target T8, KinomeScan kinase panel (Homo sapiens, UniProt P08922).
T8 construct: purchased DiscoveRx (KinomeScan)
The following applies: read-out: score (%).

Assay [9] has as its target T9, KinomeScan kinase panel (Homo sapiens, UniProt P78362).
T9 construct: purchased DiscoveRx (KinomeScan)
The following applies: read-out: score (%).

For assay [10], the target named is T10, KinomeScan kinase panel (Homo sapiens, UniProt Q15375).
T10 construct: purchased DiscoveRx (KinomeScan)
The following applies: EPHA7, 10 µM; read-out: score (%).

Assay [11] addresses T11, KinomeScan kinase panel (Homo sapiens, UniProt P09769).
T11 construct: purchased DiscoveRx (KinomeScan)
The following applies: FGR, 10 µM; read-out: score (%).

Assay [12] deals with T12, KinomeScan kinase panel (Homo sapiens, UniProt P31749).
T12 construct: purchased DiscoveRx (KinomeScan)
T12 sequence (P31749 whole entry): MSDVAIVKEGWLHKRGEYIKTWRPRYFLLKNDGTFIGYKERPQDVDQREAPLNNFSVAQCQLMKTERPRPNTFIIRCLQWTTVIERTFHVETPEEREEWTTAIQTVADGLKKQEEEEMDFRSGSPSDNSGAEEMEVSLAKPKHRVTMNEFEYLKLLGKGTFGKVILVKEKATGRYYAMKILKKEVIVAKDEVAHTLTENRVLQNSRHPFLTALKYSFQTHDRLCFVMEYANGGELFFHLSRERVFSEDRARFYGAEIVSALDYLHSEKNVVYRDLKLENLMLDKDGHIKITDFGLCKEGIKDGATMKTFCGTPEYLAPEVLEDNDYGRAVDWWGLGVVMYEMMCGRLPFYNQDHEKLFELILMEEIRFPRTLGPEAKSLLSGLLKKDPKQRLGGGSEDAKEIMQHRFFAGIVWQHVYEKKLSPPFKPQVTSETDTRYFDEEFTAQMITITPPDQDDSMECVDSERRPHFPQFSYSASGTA
To be noted: AKT1, 10 µM; read-out: score (%).

Structures are written as SMILES. Where two headings read alike, the source gives them in different places.

T8 sequence (P08922 28-2347): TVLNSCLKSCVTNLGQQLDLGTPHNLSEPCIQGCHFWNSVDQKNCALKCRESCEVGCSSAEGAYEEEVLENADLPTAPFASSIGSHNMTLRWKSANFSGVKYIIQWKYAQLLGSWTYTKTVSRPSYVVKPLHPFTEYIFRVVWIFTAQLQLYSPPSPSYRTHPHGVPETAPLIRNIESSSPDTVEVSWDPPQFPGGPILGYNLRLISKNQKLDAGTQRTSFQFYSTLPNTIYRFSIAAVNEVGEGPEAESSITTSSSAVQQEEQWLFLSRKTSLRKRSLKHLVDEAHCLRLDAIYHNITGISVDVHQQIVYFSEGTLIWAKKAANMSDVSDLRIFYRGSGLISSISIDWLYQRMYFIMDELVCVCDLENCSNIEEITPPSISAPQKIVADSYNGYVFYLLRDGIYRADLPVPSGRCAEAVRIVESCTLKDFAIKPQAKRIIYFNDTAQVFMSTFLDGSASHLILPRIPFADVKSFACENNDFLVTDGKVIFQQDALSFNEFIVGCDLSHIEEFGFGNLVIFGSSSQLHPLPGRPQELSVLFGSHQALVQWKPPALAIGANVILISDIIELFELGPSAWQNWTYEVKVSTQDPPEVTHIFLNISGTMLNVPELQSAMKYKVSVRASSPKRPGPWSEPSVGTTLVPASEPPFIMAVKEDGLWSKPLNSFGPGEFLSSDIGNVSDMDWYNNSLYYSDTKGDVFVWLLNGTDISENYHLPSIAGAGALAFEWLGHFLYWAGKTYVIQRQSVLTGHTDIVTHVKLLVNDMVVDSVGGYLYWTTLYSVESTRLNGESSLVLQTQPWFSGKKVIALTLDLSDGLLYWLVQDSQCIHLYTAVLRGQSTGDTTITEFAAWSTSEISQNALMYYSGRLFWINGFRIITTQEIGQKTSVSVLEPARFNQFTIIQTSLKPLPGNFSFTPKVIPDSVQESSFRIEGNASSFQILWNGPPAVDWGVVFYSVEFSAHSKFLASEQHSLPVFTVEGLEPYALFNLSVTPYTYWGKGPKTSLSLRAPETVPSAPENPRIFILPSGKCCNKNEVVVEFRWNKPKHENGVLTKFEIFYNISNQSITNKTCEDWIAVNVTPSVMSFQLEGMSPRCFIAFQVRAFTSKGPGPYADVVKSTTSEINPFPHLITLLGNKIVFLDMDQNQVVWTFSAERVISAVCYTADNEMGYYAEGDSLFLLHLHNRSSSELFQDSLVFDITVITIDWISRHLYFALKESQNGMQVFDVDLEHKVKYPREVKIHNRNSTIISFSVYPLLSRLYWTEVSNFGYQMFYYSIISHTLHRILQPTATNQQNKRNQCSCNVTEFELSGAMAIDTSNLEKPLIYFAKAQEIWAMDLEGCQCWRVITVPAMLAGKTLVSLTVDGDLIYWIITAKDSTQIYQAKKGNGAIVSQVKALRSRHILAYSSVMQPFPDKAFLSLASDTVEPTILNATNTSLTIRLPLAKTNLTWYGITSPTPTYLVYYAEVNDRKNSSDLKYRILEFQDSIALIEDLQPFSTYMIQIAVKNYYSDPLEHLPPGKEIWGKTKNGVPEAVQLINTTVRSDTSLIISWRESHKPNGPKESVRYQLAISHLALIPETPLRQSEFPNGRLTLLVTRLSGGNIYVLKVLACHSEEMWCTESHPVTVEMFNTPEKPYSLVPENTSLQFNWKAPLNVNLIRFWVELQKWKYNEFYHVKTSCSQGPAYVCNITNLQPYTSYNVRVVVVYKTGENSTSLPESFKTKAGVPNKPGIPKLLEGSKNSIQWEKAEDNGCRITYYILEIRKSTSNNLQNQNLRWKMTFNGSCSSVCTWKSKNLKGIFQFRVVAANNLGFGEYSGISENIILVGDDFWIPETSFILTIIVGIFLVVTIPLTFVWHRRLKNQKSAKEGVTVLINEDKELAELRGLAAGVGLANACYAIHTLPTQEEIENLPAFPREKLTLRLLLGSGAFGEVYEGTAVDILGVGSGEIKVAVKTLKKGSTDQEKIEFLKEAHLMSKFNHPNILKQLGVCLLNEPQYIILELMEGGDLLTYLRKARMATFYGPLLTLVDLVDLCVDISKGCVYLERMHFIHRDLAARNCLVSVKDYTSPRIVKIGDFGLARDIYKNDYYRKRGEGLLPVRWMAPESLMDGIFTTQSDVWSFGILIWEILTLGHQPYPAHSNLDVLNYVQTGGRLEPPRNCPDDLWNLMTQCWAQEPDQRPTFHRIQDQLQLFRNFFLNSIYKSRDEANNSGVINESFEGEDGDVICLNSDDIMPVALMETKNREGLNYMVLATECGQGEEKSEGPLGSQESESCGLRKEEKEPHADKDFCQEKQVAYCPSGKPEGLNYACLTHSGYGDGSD
T9 sequence (P78362 whole entry): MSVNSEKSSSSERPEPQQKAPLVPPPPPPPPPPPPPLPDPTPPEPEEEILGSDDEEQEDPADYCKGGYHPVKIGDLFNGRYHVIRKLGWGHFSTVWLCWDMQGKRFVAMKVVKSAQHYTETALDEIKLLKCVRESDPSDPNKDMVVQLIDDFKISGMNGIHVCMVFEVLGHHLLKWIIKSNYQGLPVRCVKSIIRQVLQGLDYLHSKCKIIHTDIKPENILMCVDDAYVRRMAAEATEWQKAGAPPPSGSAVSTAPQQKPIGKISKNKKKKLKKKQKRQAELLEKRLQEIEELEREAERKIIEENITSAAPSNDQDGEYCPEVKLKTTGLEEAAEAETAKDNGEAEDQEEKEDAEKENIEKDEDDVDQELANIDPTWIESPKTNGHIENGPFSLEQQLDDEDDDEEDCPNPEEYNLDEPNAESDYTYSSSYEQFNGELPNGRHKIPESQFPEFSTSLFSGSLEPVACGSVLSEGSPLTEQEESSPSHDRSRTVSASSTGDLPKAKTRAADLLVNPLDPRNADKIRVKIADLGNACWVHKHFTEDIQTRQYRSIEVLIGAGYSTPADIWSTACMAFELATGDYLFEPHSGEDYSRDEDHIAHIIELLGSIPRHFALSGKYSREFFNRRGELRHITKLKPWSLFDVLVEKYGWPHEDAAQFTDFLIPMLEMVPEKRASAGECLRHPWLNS
T1 sequence (P07333 20-972): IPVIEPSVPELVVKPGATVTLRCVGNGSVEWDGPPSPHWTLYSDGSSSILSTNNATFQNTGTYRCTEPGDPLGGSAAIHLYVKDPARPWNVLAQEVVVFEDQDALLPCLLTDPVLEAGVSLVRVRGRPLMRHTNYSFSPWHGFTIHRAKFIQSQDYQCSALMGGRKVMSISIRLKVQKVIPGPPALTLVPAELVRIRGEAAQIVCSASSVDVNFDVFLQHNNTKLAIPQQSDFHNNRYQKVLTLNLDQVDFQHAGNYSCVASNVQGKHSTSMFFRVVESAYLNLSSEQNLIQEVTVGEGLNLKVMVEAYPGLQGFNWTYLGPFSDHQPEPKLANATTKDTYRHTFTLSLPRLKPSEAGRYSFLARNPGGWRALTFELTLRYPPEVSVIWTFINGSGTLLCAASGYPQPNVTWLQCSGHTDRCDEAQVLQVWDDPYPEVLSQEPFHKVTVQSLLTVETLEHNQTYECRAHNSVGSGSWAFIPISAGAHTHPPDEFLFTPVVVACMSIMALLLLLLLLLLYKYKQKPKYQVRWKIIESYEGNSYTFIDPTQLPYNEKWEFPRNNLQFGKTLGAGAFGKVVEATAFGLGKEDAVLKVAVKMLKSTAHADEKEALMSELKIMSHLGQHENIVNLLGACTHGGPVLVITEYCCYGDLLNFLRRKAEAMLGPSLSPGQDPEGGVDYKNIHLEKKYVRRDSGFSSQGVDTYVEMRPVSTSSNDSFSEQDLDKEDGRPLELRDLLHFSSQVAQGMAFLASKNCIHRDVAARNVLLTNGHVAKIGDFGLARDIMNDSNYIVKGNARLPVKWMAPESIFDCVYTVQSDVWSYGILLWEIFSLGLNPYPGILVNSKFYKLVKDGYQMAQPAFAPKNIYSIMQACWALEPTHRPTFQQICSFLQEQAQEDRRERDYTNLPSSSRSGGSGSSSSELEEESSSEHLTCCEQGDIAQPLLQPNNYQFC

As for `CCN1CCN(Cc2ccc(NC(=O)c3ccc(C)c(NC(=O)c4cncc(-c5cccs5)c4)c3)cc2C(F)(F)F)CC1` [ALW-II-41-27], the remaining binding at 10 µM in assay [1] is 0%; in assay [2], 3.8%; in [3], above 30%; in [4] it was above 30%; in assay [5], above 30%; in assay [6] it was 0.75%. The remaining binding at 10 µM in assay [7] was 5.6%; in assay [8] (ROS1, 10 µM), above 30%; in assay [9] (kinase SRPK2, 10 µM), above 30%; in assay [10], above 30%; in [11] it was 0.2%; in assay [12], 4.4%.
As for `CCN1CCN(Cc2ccc(NC(=O)c3ccc(C)c(/C=C/c4cnc5[nH]ccc5c4Cl)c3)cc2C(F)(F)F)CC1` [HG-6-63-01, (E)-3-(2-(4-chloro-1H-pyrrolo[2,3-b]pyridin-5-yl)vinyl)-N-(4-((4-ethylpiperazin-1-yl)methyl)-3-(trifluoromethyl)phenyl)-4-methylbenzamide], the remaining binding at 10 µM in assay [1] is 0%; in assay [2], 5.5%; in assay [3] it was above 30%; in assay [4], above 30%; in assay [5] it was above 30%; in assay [6], 1.8%. Besides, the remaining binding at 10 µM in assay [7] was 14%; in [8] (ROS1, 10 µM), above 30%; in assay [9] (SRPK2, 10 µM) it was 28%; in assay [10], above 30%; in [11], 0.35%; in assay [12] it was above 30%.
Regarding `CCN1CCN(Cc2ccc(NC(=O)c3ccc(C)c(C#Cc4cccnc4)c3)cc2C(F)(F)F)CC1` [XMD15-44], the remaining binding at 10 µM in assay [1] is 0%; in [2], 1.2%; in assay [3] it was 88%; in [4], 16%; in assay [5] it was above 30%; in assay [6], 3%. Also, the remaining binding at 10 µM in assay [7] is 11%; in [8] (kinase ROS1, 10 µM), 46%; in assay [9] (kinase SRPK2, 10 µM), 81%; in assay [10], 0.55%; in assay [11] it was 0%; in assay [12], above 30%.
